This is an account of results in article PMC7781311 (bioRxiv, 2021).

Starred links: 1 amine or outer side, 2 acyl side, 3 side chain; linkers in the order of their positions; H or OH if unused. Residues, ends and D or L forms follow the SMILES beside them. CO = O=C([*:1])[*:2]

The subject of the first experiment is SARS-CoV-2-S pseudotyped particles (PP). It is filed as cell-based.
Details: not given
For `N=C(N)c1ccc2nc(-c3cc(CC(=O)N[C@@H](CC(=O)O)C(=O)O)cc(-c4cc(S(N)(=O)=O)ccc4O)c3O)[nH]c2c1` [NCGC00387860, PCI-27483], the “SARS-2 PP Efficacy” value is listed as “about 60%”.

For the compound `N=C(N)c1ccc2cc(OC(=O)c3ccc(N=C(N)N)cc3)ccc2c1` [NCGC00160398, Nafamostat], the “SARS-2 PP Efficacy” value amounted to 100%.

In the case of `CN(C)C(=O)COC(=O)Cc1ccc(OC(=O)c2ccc(NC(=N)N)cc2)cc1` [NCGC00167526, Camostat], the “SARS-2 PP Efficacy” value is listed as 100%.

`CC(C)[C@H](NC(=O)[C@H](CCCNC(=N)N)NC(=O)N[C@@H](Cc1ccccc1)C(=O)O)C(=O)N[C@H](C=O)CCCNC(=N)N` [NCGC00390338, Antipain] ({Phe-CO}-Arg-Val-Arg-aldehyde): the “SARS-2 PP Efficacy” value is “about 60%”.

Turning to `COC(=O)[C@H](Cc1cccc(C(=N)N)c1)[C@@H](C)NC(=O)c1ccc(-c2cc[n+]([O-])cc2)cc1` [NCGC00378763, Otamixaban], the “SARS-2 PP Efficacy” value was 50%.

`CCOC(=O)c1ccc(OC(=O)CCCCCNC(=N)N)cc1` [NCGC00025297, Gabexate]: the “SARS-2 PP Efficacy” value was found to be 0%.

Still in this experiment, the particulars now being: listed as otamixaban.
`COC(=O)[C@H](Cc1cccc(C(=N)N)c1)[C@@H](C)NC(=O)c1ccc(-c2cc[n+]([O-])cc2)cc1` [NCGC00378763, Otamixaban]: the “SARS-2 PP Efficacy” value is given as “about 50%”.
